Laboratory results from US5834514A, “Halomethyl amides as IL-1β protease inhibitors” (Vertex Pharmaceuticals, Incorporated, priority 1996, dated 1998).

What was measured:
IL-1β protease = biological target: T1, IL-1β protease (Homo sapiens, UniProt P29466); assay: In vitro IL-1β protease inhibition (HPLC, TRITC-AYVHDAPVRS-NH2 substrate); assay type: biochemical; details: 15 min preincubation, 60 min at 37° C., 67 μM substrate
T1 sequence (P29466 120-297 limits assumed): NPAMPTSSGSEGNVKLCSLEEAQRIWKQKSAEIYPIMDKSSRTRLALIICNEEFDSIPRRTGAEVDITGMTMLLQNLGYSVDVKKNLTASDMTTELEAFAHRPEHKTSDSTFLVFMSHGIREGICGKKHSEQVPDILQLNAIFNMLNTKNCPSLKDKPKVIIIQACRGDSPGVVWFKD
Procedure: Compounds of the present invention were tested for IL-1β protease inhibition activity according to the following protocols:
Partially purified IL-1β protease is stored at -80° C., thawed on ice, and preincubated for 10 minutes at 37° C. with 2.5 mM dithiothreitol in a buffer solution containing 10 mM Tris-HCl (pH 8.0) and 25% (v/w) glycerol. Inhibitors are prepared as stock solutions in dimethyl sulfoxide (DMSO). The protease is preincubated with inhibitor in a volume of 20 μL in a 1.5 mL polypropylene microcentrifuge tube for 15 minutes at 37° C. The volume of compound added to the assay is adjusted to yield a DMSO concentration in the preincubation of <15% (v/v). The enzyme assay is then initiated by the addition of substrate (TRITC-AYVHDAPVRS-NH2) (SEQ I.D. No. 1) [drawing 5] to yield a final concentration of 67 μM in a final volume of 30 μL. The reaction are carried out for 60 minutes at 37° C. in the dark and are terminated by the addition of […] (TFA). Following the addition of 115 μL of 0.1 % TFA, the samples are analyzed by high pressure liquid chromatography using a reverse phase (C18) column and elution with an acetonitrile/water/TFA gradient. Substrate and product are monitored by their absorbance at 550 nm and elute at 4.2 and 5.2 minutes, respectively.

[1] = test system: release of mature IL-1β, human monocytes; assay: "In vivo" human monocyte pulse chase assay, inhibition of release of mature IL-1β; assay type: cell-based; details: fixed S. aureus stimulation, 2-3 donors
Procedure: In vivo inhibition (IC50) was determined as follows:
Human monocytes were isolated from heparinized leukopheresis units obtained through Biological Specialty Corporation (Lansdale, Pa.). Monocytes were purified by Ficoll-Hupaque (Pharmacia Fine Chemicals, Piscataway, N.J.) gradient centrifugation and more than 95% pure monocyte populations obtained by centrifugal elutriation. The assay was performed on duplicate samples of freshly isolated human monocytes, cultured in suspension at 37° C. and rotated gently in conical bottom polypropylene tubes (Sardstedt Inc., Princeton, N.J.). Human monocytes at a concentration of 5×10^6 cells/mL were resuspended in 1 mL of RPMI 1640 (a common tissue buffer from M.A. Bioproducts, Walkersville, Md.) containing 1% fetal calf serum (FCS) (HyClone, Logan, Utah) and 50 μg/mL gentamycin (Gibco, Grand Island, N.Y.). The cells were treated either with a compound of the invention (i.e. test compound) or with a non-inhibitor (control compound, typically 0.03% DMSO) for 15 minutes and then activated with 0.01% fixed Staphylococcus aureus (The Enzyme Center, Malden, Mass.) for 1 hour. […]
In the monocyte pulse chase assay, each test parameter was run in duplicate. […] When test compounds were evaluated, the percent inhibition of release of mature IL-1β was calculated as follows: […]

[2] = test system: chronic myelogenous leukemia cells; details: cells removed from leukemia patients (CML); cited from earlier work
rats = details: PG-APS model of arthritis in rats; cited from earlier work
colon = details: ulcerative colitis model; cited from earlier work
[3] = test system: Patients with Rheumatoid Arthritis; details: small open-label human trial; cited from earlier work
[4] = test system: Acute Myelogenous Leukemia Blast; details: AML; cited from earlier work

| Compound | IC50 (IL-1β protease) [µM] | IC50 [1] [µM] | inhibition of colony growth [2] | joint swelling (rats) | tissue necrosis and number of inflammatory cells in the colon (colon) | efficacy in Rheumatoid Arthritis trial [3] | inhibition of Acute Myelogenous Leukemia Blast Proliferation [4] |
| --- | --- | --- | --- | --- | --- | --- | --- |
| C=CCN(Cc1ccc(Cl)cc1Cl)C(=O)CCl [Example 1] | ≤ 1 | < 10 | – | – | – | – | – |
| IL-1 ra: naturally occurring IL-1β receptor antagonist | – | – | inhibit colony growth | supresses joint swelling | reduced tissue necrosis and the number of inflammatory cells in the colon | shows efficacy | Inhibition of Acute Myelogenous Leukemia Blast Proliferation |
